Drawing on patent US20030114445A1, “N3-substituted 6-anilinopyrimidines and methods to treat-Gram-positive bacterial and mycoplasmal infections” (priority 2001, published 2003), this text covers MIC and Ki for 9 molecules.

The test system of one experiment is S.aureus (Smith). Briefly: Inhibition of bacterial growth on agar plates (MIC). The conditions noted are these: Staphylococcus aureus, 37° C., 24 hours. The experiment is classed as cell-based. The essentials:
(§1)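 Agar dilution: compounds from DMSO or water stocks mixed into medium with 1.3% agar at 60° C; 500-1000 CFU plated, incubated 37° C for 24 hours. MIC is the lowest concentration with no colony formation.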

In another experiment the test system is E. fecalis. The description is as above. The experiment is classed as cell-based. To be noted: 37° C., 24 hours. The essentials:
as §1

A further experiment deals with E. fecium. The description is as above. The experiment is classed as cell-based. The conditions noted are these: 37° C., 24 hours. The essentials:
as §1

The test system of the next experiment is B. subtilis. Described as above. It counts as cell-based. The conditions noted are these: Bacillus subtilis, 37° C., 24 hours. Summed up: as §1
Another experiment deals with B.subtilis pol IIIC (Bacillus subtilis, UniProt P13267). Briefly: biochemical. The essentials:
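Purified pol IIIC incorporating [3H]-dTMP into nicked calf-thymus DNA with Mg2+, DTT and glycerol, 10 min at 30 °C; acid-insoluble radioactivity counted, in triplicate.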

≈ marks a conversion by molar mass, not a printed value.

Sequence of B.subtilis pol IIIC (P13267 whole entry): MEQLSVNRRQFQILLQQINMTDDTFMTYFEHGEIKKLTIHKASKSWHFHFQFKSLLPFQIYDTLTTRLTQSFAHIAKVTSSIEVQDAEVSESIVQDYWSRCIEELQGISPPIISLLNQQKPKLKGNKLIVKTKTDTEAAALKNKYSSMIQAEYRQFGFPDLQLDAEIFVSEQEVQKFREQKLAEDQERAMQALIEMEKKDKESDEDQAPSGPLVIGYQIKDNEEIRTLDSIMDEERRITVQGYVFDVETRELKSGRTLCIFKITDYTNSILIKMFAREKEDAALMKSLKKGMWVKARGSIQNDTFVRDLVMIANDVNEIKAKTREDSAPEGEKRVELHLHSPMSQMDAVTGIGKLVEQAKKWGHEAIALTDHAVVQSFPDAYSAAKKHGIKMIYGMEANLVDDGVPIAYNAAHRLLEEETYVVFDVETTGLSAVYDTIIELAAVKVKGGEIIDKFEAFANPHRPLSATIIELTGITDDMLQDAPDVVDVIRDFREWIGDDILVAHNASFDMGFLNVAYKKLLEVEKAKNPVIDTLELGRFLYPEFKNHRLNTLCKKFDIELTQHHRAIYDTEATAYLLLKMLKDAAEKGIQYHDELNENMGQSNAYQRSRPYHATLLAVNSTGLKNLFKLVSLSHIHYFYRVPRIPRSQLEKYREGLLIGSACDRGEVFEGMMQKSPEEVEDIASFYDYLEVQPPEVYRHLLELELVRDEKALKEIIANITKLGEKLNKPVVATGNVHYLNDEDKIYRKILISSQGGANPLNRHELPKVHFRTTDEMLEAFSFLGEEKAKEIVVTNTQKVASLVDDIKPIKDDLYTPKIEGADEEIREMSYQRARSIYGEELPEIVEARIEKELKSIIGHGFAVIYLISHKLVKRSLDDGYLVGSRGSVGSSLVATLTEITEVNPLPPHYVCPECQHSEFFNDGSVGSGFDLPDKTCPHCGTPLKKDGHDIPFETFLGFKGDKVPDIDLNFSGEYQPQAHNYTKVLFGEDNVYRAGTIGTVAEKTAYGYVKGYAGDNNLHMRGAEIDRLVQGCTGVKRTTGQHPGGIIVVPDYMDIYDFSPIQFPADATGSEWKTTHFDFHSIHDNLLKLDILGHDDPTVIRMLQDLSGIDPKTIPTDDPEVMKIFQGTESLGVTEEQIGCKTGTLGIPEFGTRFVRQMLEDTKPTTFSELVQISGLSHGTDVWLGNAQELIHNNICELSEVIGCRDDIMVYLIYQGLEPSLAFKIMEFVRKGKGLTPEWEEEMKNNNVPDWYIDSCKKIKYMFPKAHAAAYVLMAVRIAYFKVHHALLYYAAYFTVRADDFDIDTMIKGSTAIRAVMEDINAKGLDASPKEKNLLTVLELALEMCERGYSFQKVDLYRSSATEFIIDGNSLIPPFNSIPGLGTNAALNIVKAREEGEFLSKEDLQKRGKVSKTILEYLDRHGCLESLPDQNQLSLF

`CCCCC1(O)CCN(CCCCCn2c(=O)cc(Nc3ccc(C)c(CC)c3)[nH]c2=O)CC1` [Compound 71, 3-{5-[1-(4-hydroxy-4-butylpiperidinyl)]pentyl}-6-(3-ethyl-4-methylanilino)uracil]: the MIC in the experiment with S.aureus (Smith) worked out at 10 µg/mL (≈ 21.2 µM); with E. fecalis it was 10 µg/mL (≈ 21.2 µM); in the experiment on E. fecium, 10 µg/mL (≈ 21.2 µM); in the experiment with B. subtilis it was 5 µg/mL (≈ 10.6 µM). This molecule also returned a Ki at B.subtilis pol IIIC of 2.1 µM.
As to `CCc1cc(Nc2cc(=O)n(CCCCCN3CC=C(c4cccs4)CC3)c(=O)[nH]2)ccc1C` [Compound 72, 3-{5-[1-(4-(thiophen-2-yl)-1,2,3,6-tetrahydropyridinyl)]pentyl}-6-(3-ethyl-4-methylanilino)uracil], the MIC with S.aureus (Smith) is 20 µg/mL (≈ 41.8 µM); against E. fecalis, 20 µg/mL (≈ 41.8 µM); against E. fecium, 40 µg/mL (≈ 83.6 µM); against B. subtilis, 5 µg/mL (≈ 10.4 µM). The affinity at B.subtilis pol IIIC corresponds to a Ki of 0.077 µM.
Consider `CCc1cc(Nc2cc(=O)n(CCCCCN3CC=C(c4cccc5ccsc45)CC3)c(=O)[nH]2)ccc1C` [Compound 73, 3-{5-[1-(4-(benzo[b]thiophen-7-yl)-1,2,3,6-tetrahydropyridinyl)]pentyl}-6-(3-ethyl-4-methylanilino)uracil], for which the MIC against S.aureus (Smith) was 10 µg/mL (≈ 18.9 µM); in the experiment with E. fecalis it was > 80 µg/mL; against E. fecium, > 80 µg/mL; in the experiment on B. subtilis, 10 µg/mL (≈ 18.9 µM). This molecule also returned a Ki on B.subtilis pol IIIC of 0.08 µM.
In the case of `CCc1cc(Nc2cc(=O)n(CCCCNCCCCn3cc(C(=O)O)c(=O)c4cc(F)c(Cl)cc43)c(=O)[nH]2)ccc1C` [Compound 74, 3-{4-[4-(3-carboxy-4-oxo-6-fluoro-7-chloroquinoline-1-yl)butylamino]butyl}-6-(3-ethyl-4-methylanilino)uracil], the MIC against S.aureus (Smith), in the experiment on E. fecalis, against E. fecium and in the experiment on B. subtilis was 20 µg/mL (≈ 32.7 µM) each time. Besides, the Ki at B.subtilis pol IIIC was determined as 0.063 µM.
Consider `CCc1cc(Nc2cc(=O)n(CCCCCN3CC=C(c4ccc(F)cc4)CC3)c(=O)[nH]2)ccc1C` [Compound 75], for which the MIC against S.aureus (Smith), against E. fecalis, against E. fecium and against B. subtilis was 5 µg/mL (≈ 10.2 µM) each time. Also, at B.subtilis pol IIIC, the Ki worked out at 0.098 µM.
Regarding `CCc1cc(Nc2cc(=O)n(CCCCCN3CC=C(c4ccc(Cl)cc4)CC3)c(=O)[nH]2)ccc1C` [Compound 76, 3-{5-[1-(4-(4-chlorophenyl)-1,2,3,6-tetrahydropyridinyl)]pentyl}-6-(3-ethyl-4-methylanilino)uracil], the MIC against S.aureus (Smith) was 5 µg/mL (≈ 9.86 µM); against E. fecalis, 80 µg/mL (≈ 158 µM); against E. fecium it was 80 µg/mL (≈ 158 µM); against B. subtilis, 5 µg/mL (≈ 9.86 µM). Moreover, at B.subtilis pol IIIC, the Ki stood at 0.087 µM.
With `CCc1cc(Nc2cc(=O)n(CCCCCNC(=O)c3cc4ccccc4s3)c(=O)[nH]2)ccc1C` [Compound 77, 3-[5-(2-benzo[b]thiophenecarboxamido)pentyl]-6-(3-ethyl-4-methylanilino)uracil], the MIC against S.aureus (Smith), in the experiment with E. fecalis, with E. fecium and in the experiment with B. subtilis was 80 µg/mL (≈ 163 µM) each time. Also, on B.subtilis pol IIIC, the affinity corresponds to a Ki of 0.48 µM.
For `CCOC(=O)C1CN(CCCCCn2c(=O)cc(Nc3ccc(C)c(CC)c3)[nH]c2=O)CCC1=O` (stereo not drawn) [Compound 78, 3-{5-(3-ethoxycarbonyl-4-oxopiperidinyl)pentyl}-6-(3-ethyl-4-methylanilino)uracil], the MIC in the experiment with S.aureus (Smith), in the experiment with E. fecalis, in the experiment on E. fecium and with B. subtilis was 80 µg/mL (≈ 165 µM) throughout. Also, on B.subtilis pol IIIC, affinity was put at a Ki of 0.25 µM.
On to `CCc1cc(Nc2cc(=O)n(CCCCCNC[C@@H]3CCN(C(=O)OC(C)(C)C)C3)c(=O)[nH]2)ccc1C` [Compound 79, 3(S)-{5-[(N-tert-butoxycarbonylpyrrolidin-3-yl)methylamino]pentyl}-6-(3-ethyl-4-methylanilino)uracil], for which the MIC in the experiment on S.aureus (Smith) was found to be 20 µg/mL (≈ 38.9 µM); in the experiment on E. fecalis, 40 µg/mL (≈ 77.9 µM); in the experiment on E. fecium it was 40 µg/mL (≈ 77.9 µM); in the experiment on B. subtilis it was 20 µg/mL (≈ 38.9 µM). The affinity at B.subtilis pol IIIC, expressed as Ki, was 0.12 µM.

For orientation: MIC means the lowest concentration that inhibits growth of the organism. High values mean a less susceptible organism, low ones a more susceptible organism. Broadly, the Ki is a dissociation constant, usually derived from enzyme kinetics or from competition with a known ligand. Low values mean a stronger hold on the target, high ones a looser hold on the target.
